Laboratory results reported in patent US6121489A (priority 1997, dated 2000).

Biological target: α-glucosidase from bakers yeast
Experiment: α-Glucosidase inhibition assay, p-nitrophenyl-α-D-glucopyranoside substrate, 96-well format
Type: biochemical
Conditions: concentration necessary for 50% enzyme inhibition

Row | Structure (SMILES) | IC50 [µM]
1 | CC(O)C(C(=O)NCc1ccccc1)N(Cc1ccc2ccccc2c1)C(=O)C(N)Cc1cn(Cc2ccc3ccccc3c2)c2ccccc12 (stereo not drawn) [R'-(1-hydroxyethyl)] | 678
2 | CC(O)C(C(=O)NCc1ccccc1)N(Cc1ccc2ccccc2c1)C(=O)C(N)Cc1cn(Cc2ccc3ccccc3c2)c2ccccc12 (stereo not drawn) [R-(1-hydroxyethyl)] | > 1000
3 | CCN(C(=O)[C@@H](N)Cc1ccccc1)[C@H](Cc1ccc(O)cc1)C(=O)NCc1ccc2ccccc2c1 [R-(4-hydroxybenzyl)] | 540
4 | NC(Cc1cn(Cc2ccc3ccccc3c2)c2ccccc12)C(=O)N(Cc1ccc2ccccc2c1)C(Cc1cn(Cc2ccccc2)c2ccccc12)C(=O)NCc1ccccc1 (stereo not drawn) [R-(N'-benzylindol-3-ylmethyl)] | 552
5 | NC(Cc1cn(Cc2ccc3ccccc3c2)c2ccccc12)C(=O)N(Cc1ccc2ccccc2c1)C(CC1CCCCC1)C(=O)NCc1ccccc1 (stereo not drawn) [R-(cyclohexylmethyl)] | > 1000
6 | N[C@@H](Cc1cn(Cc2ccc3ccccc3c2)c2ccccc12)C(=O)N(Cc1ccc2ccccc2c1)[C@H](Cc1ccc2ccccc2c1)C(=O)NCc1ccccc1 [R-(napth-2-ylmethyl)] | > 1000
7 | NC(Cc1cn(Cc2ccc3ccccc3c2)c2ccccc12)C(=O)N(Cc1ccc2ccccc2c1)C(CO)C(=O)NCc1ccccc1 (stereo not drawn) [S-(1-hydroxymethyl)] | 176
8 | N[C@@H](Cc1cn(Cc2ccc3ccccc3c2)c2ccccc12)C(=O)N(Cc1ccc2ccccc2c1)[C@@H](CCC(=O)O)C(=O)NCc1ccccc1 [S-(2-carboxyethyl)] | > 1000
9 | N[C@@H](Cc1cn(Cc2ccc3ccccc3c2)c2ccccc12)C(=O)N(Cc1ccc2ccccc2c1)[C@@H](Cc1cn(Cc2ccccc2)c2ccccc12)C(=O)NCc1ccccc1 [S-(N'-benzylindol-3-ylmethyl)] | 632
10 | CCN(C(=O)[C@@H](N)Cc1ccccc1)[C@@H](Cc1ccc2ccccc2c1)C(=O)NCc1ccc2ccccc2c1 [S-(napth-2-ylmethyl)] | > 1000
11 | CCN(C(=O)[C@@H](N)Cc1ccccc1)[C@H](C(=O)NCc1ccc2ccccc2c1)c1ccccc1 [S-(phenyl)] | 184
12 | N[C@@H](Cc1cn(Cc2ccc3ccccc3c2)c2ccccc12)C(=O)N(CCC(=O)NCc1ccccc1)Cc1ccc2ccccc2c1 [hydrogen atom, AA = 1] | 770
